Several values for one entry are separate records, joined by “and”; a condition that tells them apart may be missing. Equal values may be shown once.
target: Nonstructural protein 3 (Zika virus, UniProt A0A024AXB9); assay: Functional biochemical assay to identify treatments for viral infectious disease that targets Zika NS2B-NS3 protease. Utilizing a direct enzyme activity measurement method, reading the fluorescence intensity is used to characterize the relative potency of inhibitors as IC50.; set-up: species or system PRVABC59
Sequence (A0A024AXB9 whole entry): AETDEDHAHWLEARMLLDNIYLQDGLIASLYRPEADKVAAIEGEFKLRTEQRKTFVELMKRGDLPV

Row | SMILES | IC50
1 | O=C(/C=C/c1ccccc1CN1CCCCC1)C(=O)N1CCOCC1 | > 198 µM
2 | O=C(Nc1ccc2c(c1)CN[C@H]2C[C@H](O)CO)c1cc(F)cc2[nH]ncc12 | 0.077 µM and 0.069 µM
3 | O=C(Nc1ccc2c(c1)CNC2)c1cc(Cl)cc2c1cnn2C1CCC1 | 0.031 µM and 0.023 µM
4 | O=C1Cc2c(cccc2C(=O)Nc2ccc3c(n2)CNC3)N1 | 1.42 µM
5 | c1cc(-c2cc(CN3CCC(c4cscn4)CC3)n[nH]2)ccn1 | > 99.5 µM
6 | CN(C)Cc1cc(NC(=O)c2cc(Cl)cc(NC(=O)OCc3ccccc3)c2)sn1 | > 99.5 µM
7 | Clc1cc([C@@H]2C[C@H]2c2cccc(C3CCNCC3)c2)c2cn[nH]c2c1 | 4.53 µM and 7.81 µM
8 | NCc1cccc(NC(=O)c2cc(NC(=O)OCc3ccccc3)c(=O)n3c2CCCC3)c1 | > 99.5 µM
9 | O=C(O)c1cc(NS(=O)(=O)c2ccc(Oc3ccccc3Cl)cc2)ccc1Cl | > 99.5 µM
10 | COCc1nn(CC#Cc2ccc(Cl)cc2)c(=O)o1 | > 99.5 µM
11 | CN(C)CCNC(=O)[C@H](NC(=O)OCc1ccccc1)c1ccc(OCc2ccccc2)cc1 | > 99.5 µM
12 | CN(C)Cc1cccc(C(=O)Nc2cc(Cl)cc(C(=O)NC(C)(C)CO)c2)c1 | > 99.5 µM
13 | O=C1Cc2c(cc(F)cc2C(=O)Nc2ccc3c(c2)CNC3)N1 | 0.026 µM and 0.014 µM
14 | O=C(Nc1ccc2c(c1)CNC2)c1cc(F)cc2nn(-c3ccccn3)nc12 | 0.111 µM and 0.13 µM
15 | CCC1CN(C(=O)Cn2ccnc(N3CC[C@@H](CO)C3)c2=O)C1 | > 99.5 µM
16 | NCc1cccc(CS(=O)(=O)c2cc(Cl)cc(NC(=O)OCc3ccccc3)c2)c1 | > 99.5 µM

Row | SMILES | IC50
17 | CN(c1ccc(Oc2ccccc2Cl)cc1)S(=O)(=O)c1cc(F)c(Cl)cc1C(=O)O | > 99.5 µM
18 | COc1cc(Cc2ccnc(N3CCNCC3)c2)nc(N2CCNCC2)n1 | > 99.5 µM
19 | O=C(O)c1cc(Cl)cc(Cl)c1S(=O)(=O)Nc1ccc(Oc2ccccc2Cl)cc1 | > 99.5 µM
20 | O=C(O)c1cccc(NC(=O)c2cc(Cl)cc3[nH]ncc23)c1 | > 99.5 µM
21 | CNC(=O)C[C@H](Nc1cccc(F)n1)c1cc(Cl)cc(Br)c1 | > 99.5 µM
22 | Clc1snnc1CN1CCC(c2nc3ccccc3o2)CC1 | > 99.5 µM
23 | O=C(O)c1nccn2ncc(Cc3c[nH]c4ccc(Cl)cc34)c12 | > 99.5 µM
24 | O=c1ccc(-n2cncn2)nn1CC=Cc1ccccc1 | > 99.5 µM
25 | C[C@@H](NC(=O)c1ccc2[nH]cc(C=O)c2c1)C1=CCN(C)CC1 | > 99.5 µM
26 | O=C(Nc1ccc2c(c1)CNC2)c1ccncc1 | > 99.5 µM
27 | COC(=O)[C@@H](C)NC(=O)c1cc(Cl)ccc1NS(=O)(=O)c1ccc(Oc2ccccc2Cl)cc1 | > 99.5 µM
28 | NC(=O)c1ccc(Cn2nnc(C=Cc3ccccc3)n2)cc1 | > 99.5 µM
29 | O=C(O)c1cc(Cl)ccc1S(=O)(=O)Nc1ccc(N2CCCS2(=O)=O)cc1 | > 99.5 µM
30 | NCc1cccc(NC(=O)[C@@H](NC(=O)OCc2ccccc2)c2cc(F)cc(F)c2)c1 | > 99.5 µM
31 | NCc1cccc(NC(=O)[C@H]2CCc3nnc(-c4ccc(F)cc4)n3C2)c1 | > 99.5 µM

Further lines, results first:

Row | IC50 | SMILES
32 | 48.7 µM | NCc1cccc(NC(=O)c2ccc(OCC(F)(F)F)c(NC(=O)OCc3ccccc3)c2)c1
33 | 9.61 µM | COC(=O)c1cc(NC(=O)c2cc(Cl)cc(NC(=O)OCc3ccccc3)c2)cc(-c2nnn[nH]2)c1
34 | > 99.5 µM | CC(C)Cn1cccc(C(=O)Nc2ccnc3ccccc23)c1=O
35 | > 25 µM | Cc1c(C(=O)Nc2cc(C#N)cn(C)c2=O)cc(C2CC2)n1C
36 | 46.7 µM | O=C(O)c1cc(Cl)ccc1NS(=O)(=O)c1ccc(Nc2ccccc2F)nc1
37 | > 99.5 µM | O=C(O)c1cc(Cl)ccc1NS(=O)(=O)c1ccc(OCc2ccccn2)cc1
38 | > 99.5 µM | O=C(O)[C@H]1CCCC[C@@H]1NS(=O)(=O)c1ccc(Oc2ccccc2Cl)cc1
39 | > 99.5 µM | NS(=O)(=O)c1cccc(N2CCN(Cc3c[nH]c4ccccc34)CC2)c1
40 | > 99.5 µM | O=C(O)Cn1ccnc(N2CC[C@@H](CO)C2)c1=O
41 | > 25 µM | NCCCc1ccnc(NC(=O)c2cnn3c2CCC3)c1
42 | 68.3 µM | O=C(Nc1cc(Cl)cc(C(=O)NCc2ccc(-c3nnn[nH]3)cc2)c1)OCc1ccccc1
43 | 27.6 µM | O=C(Nc1cc(Cl)cc([C@H]2C[C@@H]2c2cccc(-c3nnn[nH]3)c2)c1)OCc1ccccc1
44 | > 99.5 µM | CCCCCC(=O)N[C@H](C(=O)N1CCC(CN)CC1)c1ccc(OCc2ccccc2)cc1
45 | > 99.5 µM | NCc1cccc(N(C(=O)CNC(=O)OCc2ccccc2)c2ccc(OCc3ccccc3)cc2)c1
46 | 89.9 µM | Cc1c(C(=O)Nc2cc(F)cc(CN)c2)cc(C2CC2)n1C
47 | > 99.5 µM | NCc1cccc(NC(=O)c2cc(NC(=O)OCc3ccccc3)cc(C(F)(F)F)c2F)c1
48 | 7.72 µM | N[C@H]1CCN(c2ccc(NC(=O)c3cc(Cl)cc(NC(=O)OCc4ccccc4)c3)cc2)C1
49 | 64.4 µM | NCc1cccc(NC(=O)[C@@H](NC(=O)OCc2ccccc2)c2cccc(Br)c2)c1
50 | > 99.5 µM | O=C(NCCc1nc2ccccc2[nH]1)c1cc2ccc(F)cc2s1
51 | > 25 µM | CC1([C@H]2CCCN(C(=O)Nc3ccc4c(c3)CNC4)C2)CC1
52 | > 99.5 µM | NCc1cccc(NC(=O)[C@@H](NC(=O)OCc2ccccc2)c2c(F)cccc2F)c1
53 | 63 µM | O=C(N[C@H]1[C@H]2CCCCC[C@H]2[C@H]1C(=O)Nc1cccc(-n2nn[nH]c2=O)c1)OCc1ccccc1
54 | > 99.5 µM | Cc1c(C(=O)Nc2cccc(-n3nn[nH]c3=O)c2)cc(C2CC2)n1C

Row | IC50 | SMILES
55 | > 25 µM | Cn1nc(C(F)(F)F)cc1C(=O)Nc1cc(-c2cccnc2)ccn1
56 | 0.107 µM | Cn1cc2c(C(=O)Nc3ccc4c(c3)CNC4)cc(F)cc2n1
57 | > 25 µM | O=C1Cc2c(cccc2C(=O)Nc2ccc(O[C@H]3CCOC3)nc2)N1
58 | > 25 µM | O=C(Nc1cc(-c2cccnc2)ccn1)c1cnc(C2CC2)s1
59 | 0.115 µM | O=C(Nc1ccc2c(c1)CNC2)c1cc(F)cc2c1CCNC2
60 | 7.69 µM | O=C(Nc1cc(Cl)cc(C(=O)Nc2ccc3c(c2)CNCCO3)c1)OCc1ccccc1
61 | 0.174 µM | N#C[C@H](Nc1ccc2c(c1)CNC2)c1cc(Cl)cc(C2CC2)c1
62 | 36.4 µM | C#Cc1cc(NC(=O)OCc2ccccc2)cc(C(=O)Nc2cccc(CN)c2)c1
63 | 0.433 µM | N#Cc1cc(Cl)cc([C@H](C#N)Nc2ccc3c(c2)CNC3)c1
64 | 14.8 µM | C=C(C)c1cc(NC(=O)OCc2ccccc2)cc(C(=O)Nc2cccc(CN)c2)c1
65 | 0.364 µM | CCc1cnccc1-c1nc2c(C(=O)Nc3ccc4c(c3)CNC4)cc(Cl)cc2[nH]1
66 | 6.93 µM | NCc1cccc(NC(=O)C[C@@H](NC(=O)OCc2ccccc2)c2ccc(OCc3ccccc3)cc2)c1
67 | 0.176 µM | O=C(Nc1ccc2c(c1)CNC2)c1cc(F)cc2[nH]cnc12
68 | 6.85 µM | Cn1c(=O)[nH]c2cc(C(=O)Nc3ccc4c(c3)CNC4)cc(Br)c21
69 | 64.9 µM | O=C(Nc1cc(Cl)cc(C(=O)Nc2cccc(Cc3nn[nH]n3)c2)c1)OCc1ccccc1
70 | 23.3 µM | O=C(Nc1ccc2c(c1)CNC2)c1c[nH]c2ncc(F)cc12
71 | > 25 µM | COC(=O)N1CCc2cc(NC(=O)c3cc(C4CC4)n(C)c3C)ccc21
72 | > 25 µM | Cc1c(C(=O)Nc2ccc3c(c2)CCCC(=O)N3C)cc(C2CC2)n1C
73 | 4.79 µM | NCc1cccc(NC(=O)c2cc(Cl)cc(NC(=O)OCc3ccccc3)c2)c1
74 | 36.3 µM | CC(C)(C)c1ncc(-c2ccc([C@@H](NC(=O)OCc3ccccc3)C(=O)Nc3cccc(CN)c3)cc2)o1
75 | 1.19 µM | O=C(Nc1ccc2c(c1)CNC2)c1cc(F)cc(-c2ccnc3c2CCO3)c1
76 | 7.07 µM | NCc1cccc(NC(=O)c2cc(Br)cc(-n3cnnn3)c2)c1
